Consider two compounds from US20140330022A1, “COLLATERAL BLOOD CIRCULATION DEVELOPMENT PROMOTER” (KOWA COMPANY, LTD., priority 2012, published 2014).

The structures appear in SMILES notation.

The term AUC(0-inf) denotes total exposure, with the tail of the curve extrapolated. Low readings indicate low exposure, high ones high exposure. As usually defined, the AUC(0-t) is exposure summed from dosing to a finite time, without extrapolation to infinity. As usually defined, the Cmax is the highest concentration seen after dosing. A word on the Tmax: it is the time from dosing to the highest level. As a reminder, the half-life is how long it takes for the measured level to halve.

The subject of series [1] is human aortic endothelial cells (HAEC). Put plainly: Proliferative activity of HAEC (WST-8 assay). The format is cell-based. The following applies: 1 μM and 3 μM, 48 hours incubation, vs solvent control, n=3 (FIG. 1). As for the experimental part:
(§1) The Compound 1 was produced according to the method described in WO97/012869 and dissolved in dimethyl sulfoxide (solvent). As for cells used in the experiment, human aortic endothelial cells (HAEC (Lonza Group Ltd.)) and normal human umbilical vein endothelial cells (HUVEC; American Type Culture Collection) were used.
HAEC were cultured using an endothelial cell growth medium (EGM-2 bullet kit; Lonza) containing 10% fetal bovine serum (FBS). The proliferative activity of HAEC was assessed by a WST-8 assay using a Cell Counting Kit (Dojindo Laboratories). In a 96-well plate, HAEC were seeded at a concentration of 5000 cells per well, and incubated for 24 hours. Subsequently, the medium in each well was exchanged to 100 μL of fresh culture medium containing various concentrations of the Compound 1 or solvent alone. After the 48 hours of subsequent incubation, 10 μL of WST-8 reagent was added to each well. The plate was incubated another 4 hours, and then the absorbance at 450 nm was measured with an absorbance plate reader.
On the technique in general: Formazan colour is commonly taken as a measure of viable cells.

Series [2] in a line: Pharmacokinetics study in the rat, single oral dose. Type of series: in vivo. The following applies: non-fasting, serum, n=3. As to the method:
The concentration of the Compound 1 in the serum was detected with a high-performance liquid chromatography system attached with a fluorescence detector. The maximum plasma concentration (Cmax) and time to the maximum plasma concentration (Tmax) were determined from the measurement of the drug concentration in the serum, half-life (T1/2), and AUC. The time curve was computed by a least squares method and a trapezoidal method, respectively.

In series [3] the test system is excised rat femoral artery contracted with KCl. As to the kind of experiment: Vasodilation of excised rat femoral artery in Magnus tube. The following applies: 0.1 μmol/L to 30 μmol/L, in vitro, n=3 (FIG. 9). As to the method: The femoral artery vessel (3 mm in width) excised from the rat was placed to a Magnus tube filled with a Krebs-Henseleit solution maintained at 37° C., to which a mixed gas of 95% O2 and 5% CO2 was continuously injected by reference to the method by Abiru et al. (Abiru T, et al., Eur J. Pharmacol. 1995; 281:9-15.). The isometric tension of the vessel was measured with a tension transducer, and the result was recorded with a thermal printer. The vessel was adjusted to a resting tension of 0.75 g. The vessel was contracted by 60 mmol/L (rats) of potassium chloride, and then the Compound 1 or a base was continuously injected to the Magnus tube. At the end of each experiment, […] of papaverine was added in order to determine the maximum relaxation.

In series [4] the test system is rat femoral artery occlusion model. Put plainly: Hindlimb muscle blood flow in rat hindlimb ischemia model by ligation of femoral artery (colored microspheres). Type of series: in vivo. The following applies: 30 mg/kg oral twice daily for 27 days. As for the experimental part: (§2) The Compound 1 was produced according to the method described in WO97/012869 and was used by dissolving in dimethyl sulfoxide or suspending in 1% (W/W) of hydroxypropyl methyl cellulose aqueous solution. As for animals, 7 to 9 week-old Sprague-Dawley (Slc:SD) male rats were used. As for anesthesia for operation, pentobarbital.sodium was intraperitoneally administered at a dose of 50 mg/kg.
(§3) Bilateral femoral arteries were exposed and the arteries were ligated using a suture under anesthesia. For histological analysis, the Compound 1 or base alone was orally administered twice daily for 27 days starting on the day of operation. On Day 28, the left gastrocnemius muscle was extirpated and frozen in a Tissue-Tek O.C.T. compound (Sakura Finetech Japan Co., Ltd.). Tissue sections at a thickness of 10 μm were prepared by slicing the frozen tissue sample with a freezing microtome, and dried in an air and fixed with acetone. […] The positive staining with α-SMA was identified by an examination using a light microscope, and the luminal area of intramuscular artery was quantified by image analysis (Win ROOF; Mitani Co., Ltd.). The blood flow volume on Day 28 in the hindlimb muscle in this model was determined by measuring at two points, in other words before and after exercise, using Dye-Trak VII+ microspheres (Triton Technology, Inc.).
In particular detail, initially a pentobarbital.sodium solution was intraperitoneally administered to the rat at a dose of 50 mg/kg to anesthetize. […] Wave profile of blood pressure that is characteristic to the left ventricular was detected to confirm whether the catheter has reached to the left ventricular. The temporal pulse pressure and average blood pressure were measured with a sphygmomanometer via the blood pressure transducer. […]

Series [5] shares this test system. As to the kind of experiment: Luminal area of intramuscular artery in gastrocnemius muscle, rat femoral artery ligation model (α-SMA staining). The following applies: 30 mg/kg oral twice daily for 27 days, mean±standard error, n=16, ligated control 3315±416, sham 14642±1062, P<0.05. The format is in vivo. As for the experimental part: as §2, §3
For series [6], the system named is normal human umbilical vein endothelial cells (HUVEC). Put plainly: HUVEC tube formation on Matrigel matrix. Type of series: cell-based. As for the experimental part: as §1
HUVEC were cultured using an endothelial cell growth medium (Endothelial Cell Growth Medium: Cell Applications) containing 10% FBS. In a 96-well plate coated with Matrigel matrix, HUVEC were seeded at a concentration of 1.5×10^4 cells per well, and incubated in a 200 μL of culture medium containing various concentrations of the […] or solvent alone for 18 hours. After that, total tube length in a field (Total tube length) was calculated by image analysis using a light microscope (E-400; Nikon Corp.).

The subject of series [7] is lower-extremity ischemic mouse. Conditions: long-term administration (Non-Patent Document 7); cited from earlier work.
The test system of series [8] is human aortic endothelial cells (HAEC). Conditions: HAEC in vitro; eNOS phosphorylation via cAMP/PKA and PI3K/Akt, increased NO production (Non-Patent Document 6); cited from earlier work.
The mark [9] stands for this setting: Sprague-Dawley (Slc:SD), single oral 3 mg/kg.
Where [10] appears, read: Sprague-Dawley (Slc:SD), single oral 10 mg/kg.
[11] abbreviates: Sprague-Dawley (Slc:SD), single oral 100 mg/kg.
The mark [12] stands for this setting: Sprague-Dawley, single oral 10 mg/kg.
Setting [13] is: Sprague-Dawley, single oral 30 mg/kg.

On to `O=C(NCCCOc1ccc2[nH]c(=O)ccc2c1)N(C1CC1)[C@@H]1CCCC[C@H]1O` [Compound 1, (−)-6-[3-[3-cyclopropyl-3-[(1R,2R)-2-hydroxycyclohexyl]ureido]propoxy]-2(1H)-quinolinone], for which, in series [1], the “effect on the proliferative activity of HAEC” value is given as “no effect”. Also, the AUC(0-inf) turned out to be 1.33 µM·h in series [2] (setting [9]), 48.2 µM·h in series [2] (setting [11]), 2.55 µM·h in series [2] (setting [12]) and 14.8 µM·h in series [2] (setting [13]). Further, the AUC(0-t) in series [2] (setting [9]) was found to be 0.83 µM·h; in series [2] (setting [10]) it was 2.38 µM·h; in series [2] (setting [11]), 47.1 µM·h; in series [2] (setting [13]), 14.1 µM·h. Also, the Cmax worked out at 300 ± 60 nM in series [2] (setting [9]); 830 ± 140 nM in series [2] (setting [10]); 4730 ± 280 nM in series [2] (Sprague-Dawley (Slc:SD), single oral 30 mg/kg); 9760 ± 1440 nM in series [2] (Sprague-Dawley, single oral 100 mg/kg). The Tmax was 1 h in series [2] (setting [9]), 1 h in series [2] (setting [11]), 1 h in series [2] (setting [12]) and 2 h in series [2] (setting [13]). Further, the half-life in series [2] (setting [9]) was 2.64 h; in series [2] (setting [11]), 2.19 h; in series [2] (setting [12]), 2 h; in series [2] (setting [13]) it was 1.61 h. The “vasodilating effect on ring specimen of excised rat femoral artery” value in series [3] is “dose-dependent vasodilating effect”. Moreover, in series [4] (Day 28, after exercise, mean±standard error, n=20, control 0.561±0.034, P<0.001), the “blood flow in the gastrocnemius muscle after exercise” value was 0.818 ± 0.058 mL/min/g. In addition, the “blood flow in anterior tibialis muscle after exercise” value in series [4] (Day 28, after exercise, mean±standard error, n=20, control 0.697±0.039, P<0.001) was found to be 0.992 ± 0.060 mL/min/g. The “hindlimb muscle blood flow before exercise” value in series [4] (Day 28, before exercise (at rest), gastrocnemius and anterior tibialis) is reported as “no change”. Further, the “luminal area of the main artery in the gastrocnemius muscle” value in series [5] came out at 7100±824 μm^2. Moreover, the “angiogenesis in photographs of HUVEC tube formation” value in series [6] (0.01, 0.1, 1, 10, 100 μM (FIG. 2)) is on record as “no angiogenesis could be confirmed”. In addition, in series [6] (0.01 to 100 μM, 18 hours, n=2 (FIG. 3)), the “HUVEC tube formation, ratio of Total tube length with respect to the control” value is on record as “no significant difference with respect to the control”. Moreover, the “angiogenic activity via direct action to endothelial cells” value in series [6] (conclusion from HAEC proliferation and HUVEC tube formation) is recorded as “does not have an angiogenic activity”.
`O=C1CCc2cc(OCCCCc3nnnn3C3CCCCC3)ccc2N1` [cilostazol]: in series [7], the “vascular density in lower-extremity muscles” value is “elevates”. In addition, the “tubulogenesis of endothelial cells” value in series [8] is recorded as “promotes tubulogenesis of endothelial cells”.
